For orientation: IC50 means the concentration at which inhibition is half-maximal. Read a low IC50 as greater potency.

The test is described as follows: Inhibition of [3H]PDBu binding to murine brain PKC (protein kinase C). More on the design: species or system Mus musculus.
In turn, `CCCCCCCC(=O)OC1CC[C@H](CO)CC1OC(=O)CCCCCCC` (stereo in doubt; 20b) showed an IC50 of 1000 µM.

For `O=C(OC1CC[C@H](/C=C/CO)CC1OC(=O)c1ccccc1)c1ccccc1` (some centres undefined), the IC50 was above 1000 µM.

With `CCCCCCCC(=O)OC1CC[C@H](CO)CC1OC(=O)CCCCCCC` (stereo in doubt; 20a), the IC50 is above 1000 µM.

On to `CCCCCCCC(=O)OC[C@H](CO)OC(=O)CCCCCCC`, for which the half-maximal inhibitory concentration (IC50) amounted to 5 µM.

As for `O=C(OC1CC[C@H](/C=C/CCO)CC1OC(=O)c1ccccc1)c1ccccc1` (some centres undefined), the IC50 was above 1000 µM.

In turn, `CCCCCCCCCCCCCC(=O)O[C@@H]1[C@@H](C)[C@@]2(O)[C@@H](C=C(CO)C[C@]3(O)C(=O)C(C)=C[C@@H]23)[C@@H]2C(C)(C)[C@]12OC(C)=O` [PHORBOL MYRISTATE ACETATE] came in with an IC50 of 0.01 µM.

Turning to `CCCCCCCC(=O)OC1CC[C@H](/C=C/CCO)CC1OC(=O)CCCCCCC` (some centres undefined), the IC50 was above 1000 µM.

In turn, `CCCCCCCC(=O)OC1CC[C@H](/C=C/CO)CC1OC(=O)CCCCCCC` (some centres undefined) had an IC50 above 1000 µM.

`O=C(OC1CC[C@H](CO)CC1OC(=O)c1ccccc1)c1ccccc1` (some centres undefined) registered an IC50 above 1000 µM.

Values taken from ChEMBL document CHEMBL1124842, “Cyclohexane diester analogues of phorbol ester as potential activators of protein kinase C” (J Med Chem, 1990).
